Experiments:
CFA mediated pain = assay: CFA (Freund's adjuvant) mediated pain, topical treatment; type: in vivo, Sprague Dawley Rats
From the text: The total 24 female Sprague Dawley Rats were assigned to two test and two control groups having 6 animals per group. Animals from G1 and G2 received CFA on Day 1 by intraplanter route followed application of test item (0 and 3% respectively), onto injection site from Day 1 to Day 7. Group G3 and G4 animals received deep incision through the skin and fascia of the plantar foot followed by application of test item (0 and 3% respectively), onto the incision site from Day 1 to Day 7. Clinical signs, body weight and pain assessment parameters like Von Frey estimation and FOB was evaluated and the pain reduction results at Day 7 are summarized in Table 7.

[1] = Single oral dose in healthy human subjects: systemic exposure, heart rate, lymphopenia; type: in vivo; conditions: humans; for bradycardia: 0.5 mg to 12 mg single oral dose, 72 hours monitoring
Description: The observance of bradycardia with S1P1 selective agonists has been reported to be species specific.
Human subjects were treated in cohorts of different dose levels (each cohort=8 human subjects) with a compound of formula (I)@0.5 mg, 2 mg, 6 mg and 12 mg single oral dose.

SMILES: CCCOc1ccc(-c2nc(-c3ccc4oc(C(N)(CO)CO)cc4c3)no2)cc1Cl [compound of formula (I)]
- Pain reduction results at Day 7, CFA mediated pain (CFA mediated pain; 3% (G2), Placebo (G1) 0.17): 0.00
- pain relief (CFA mediated pain; 3% topical Day 1 to Day 7, day 7): complete pain relief
- systemic exposure ([1]; 0.5 mg single oral dose): 0.6 ng/mL
- bradycardia [1]: no bradycardia events
- bradycardia ([1]; listed as S1P1 receptor modulator of formula (I)): did not induce bradycardia
- bradycardia ([1]; listed as compound of Formula I): no dose proportional or dose relevant bradycardia event
- systemic exposure ([1]; 2 mg single oral dose): 2.4 ng/mL
- systemic exposure ([1]; 6 mg single oral dose): 7.1 ng/mL
- systemic exposure ([1]; 12 mg single oral dose): 18.8 ng/mL
- lymphopenia ([1]; dose of ~0.17 mg/kg): no induction of significant lymphopenia
- systemic exposure ([1]; dose of ~0.17 mg/kg): 18.8 ng/mL

Source: patent publication US20230094545A1, “S1P RECEPTOR MODULATORS” (AKAAL PHARMA PTY LTD, priority 2020, published 2023)
